# Reference: patent US9745267B2, “Compounds as modulators of RORC” (Boehringer Ingelheim International GmbH, priority 2013, dated 2017)
# Target: T1, RORγt (hRORC LBD) (Homo sapiens, UniProt P51449)
# T1 construct: expressed in transfected cells; host or cells: HEK 293 (transient cotransfection with pGL4.3 luc2P/GAL4UAS/Hygro reporter)
# T1 sequence (P51449 269-508 limits assumed): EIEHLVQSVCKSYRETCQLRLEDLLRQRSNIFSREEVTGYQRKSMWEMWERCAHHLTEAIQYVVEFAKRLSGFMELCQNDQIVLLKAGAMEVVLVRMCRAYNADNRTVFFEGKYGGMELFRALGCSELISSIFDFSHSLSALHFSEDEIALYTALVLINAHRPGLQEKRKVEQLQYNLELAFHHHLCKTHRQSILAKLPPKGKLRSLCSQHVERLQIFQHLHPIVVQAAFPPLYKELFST
# Assay: RGA Assay: nuclear receptor transactivation assay, RORγt transactivation of a luciferase reporter
# Assay type: cell-based
# Conditions: transiently transfected HEK 293 cells, Gal4DBD hRORC LBD, 20-24 hours incubation
# Procedure: A nuclear receptor transactivation assay was performed to quantitate the ability of test compounds to inhibit RORγt transactivation of a luciferase reporter. A similar assay is described in: Khan et al., Bioorganic & Medicinal Chemistry Letters 23 (2013), 532-536. The system uses transiently transfected HEK 293 cells cotransfected with two plasmids (pGL4.3, luc2P/GAL4UAS/Hygro, and pBIND, Gal4DBD hRORC LBD1-3). The positive control is co-transiently transfected with both plasmids, and the negative control contains the pGL4.3 promoter sequence. Assays were assembled in 384 well plates where transiently transfected cells and test compound at varying concentrations were incubated for 20-24 hours. The next day, assays plates are taken out and equilibrated at RT for 20-30 minutes. Bright-Glo™ Luciferase Assay System is used to detect Luciferase production. After addition of Bright GLO detection reagent, the plates were incubated at RT for 20 minutes. The plates were read on an Envision plate reader to measure luminescence signal. The RLU signal is converted to POC relative to control and blank wells.
# Compound Dilution Buffer:
# Bright Glo Luciferase Assay System: Promega #E2620
# Thaw lysis buffer provided in kit, add 100 mL lysis buffer to substrate powder.
row,SMILES,IC50 [µM]
1,CNS(=O)(=O)c1ccc(CNC(=O)N2CC3(CCCC3)c3cc(-c4cnc(OC)cc4C)ccc32)cc1 [Example 49],1.9
2,CNS(=O)(=O)c1ccc(CNC(=O)N2CC3(CCCC3)c3cc(-c4cc(C#N)ccc4C)ccc32)cc1 [Example 41],1.1
3,CCS(=O)(=O)c1ccc(CNC(=O)N2C[C@@](C)(C3CC3)c3cc(-c4c(OC)ncnc4C4CC4)ccc32)cc1 [Example 126],0.4
